# Assay results from patent publication US20200405868A1, “GEL-FORMING POLYPEPTIDES” (priority 2018, published 2020).
# Entries after “also recorded” stand apart in the source; their conditions may differ. Where no end group is shown, it is not given here. [ ]: non-standard residue; d: D form. The star is where a group is joined. Palmitoyl = CCCCCCCCCCCCCCCC(=O)*
# Experiment: Compound gel-forming ability in water (visual inspection, tube tapping assay, tilted tube assay);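 also: peptides mixed with de-ionized water at about 22-25 °C, judged after 20 min by eye plus tube tapping (10 taps, moves counted) and 90° tilt mobility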
# Assay type: physicochemical
# Settings: for Physical property at 11% w/w: 11% w/w in aqueous solution, room temperature; for gel formation at 6% w/w: 6% w/w in water; for gel formation at 11% w/w: 11% w/w in water; for gel formation in aqueous solution, 11% / gel formation in aqueous solution, 6% / gel formation in aqueous solution, 20% / gel formation in aqueous solution, 3%: Table 3; for gel formation in aqueous solution, 11% / propensity to form gels, chimeric or mutated polypeptides, 11% / propensity to form gels, wild-type counterparts, 11%: 11% w/w; for gel formation in aqueous solution, 6% / propensity to form gels, wild-type counterparts, 6% / propensity to form gels, chimeric or mutated polypeptides, 6%: 6% w/w; for gel formation at 20% w/w: 20% w/w in water; for gel formation at 3% w/w: 3% w/w in water; for gel formation at the selected concentration: selected concentration (i.e., at 30%, 20%, 11%, or 6% w/w)
Compound,gel formation at 6% w/w,gel formation at 11% w/w,"gel formation in aqueous solution, 11%",Physical property at 11% w/w (Table 1),"gel formation in aqueous solution, 6%","propensity to form gels, wild-type counterparts, 6% (Table 5)","propensity to form gels, wild-type counterparts, 11% (Table 5)",further results
Pal-KVQKLNFVPTNVGSKAY-NH2 (Palmitoyl-KVQKLNFVPTNVGSKAY-NH2; SMILES CCCCCCCCCCCCCCCC(=O)N[C@@H](CCCCN)C(=O)N[C@H](C(=O)N[C@@H](CCC(N)=O)C(=O)N[C@@H](CCCCN)C(=O)N[C@@H](CC(C)C)C(=O)N[C@@H](CC(N)=O)C(=O)N[C@@H](Cc1ccccc1)C(=O)N[C@H](C(=O)N1CCC[C@H]1C(=O)N[C@H](C(=O)N[C@@H](CC(N)=O)C(=O)N[C@H](C(=O)NCC(=O)N[C@@H](CO)C(=O)N[C@@H](CCCCN)C(=O)N[C@@H](C)C(=O)N[C@@H](Cc1ccc(O)cc1)C(N)=O)C(C)C)[C@@H](C)O)C(C)C)C(C)C) [SEQ ID NO:139],–,–,–,–,–,–,–,Physical property at 11% w/w (Table 2): SS (SS for semisolid gel)
Pal-HSYKRPPGFS-(DβNal)-Ile-NH2 [SEQ ID NO:261],liquid gel,semisolid gel,SS (SS for semisolid gel),–,–,–,–,"propensity to form gels, chimeric or mutated polypeptides, 3% (Table 5, 3% w/w): AS/IS; propensity to form gels, chimeric or mutated polypeptides, 11% (Table 5): SS (An ability to form semisolid gel is represented by an SS)"
"PGTCEICAYAACTGC [SEQ ID NO:40, reference compound]",–,–,–,AS/IS,–,–,–,–
"RPKPQQFF-Sar-L-Met-(O2)-NH2 [SEQ ID NO:69, reference compound]",–,–,AS/IS (AS/IS for aqueous solution or insoluble),–,AS/IS (AS/IS for aqueous solution or insoluble),AS/IS,AS/IS,"gel formation in aqueous solution, 20% (20% w/w): AS/IS (AS/IS for aqueous solution or insoluble); propensity to form gels, wild-type counterparts, 20% (Table 5, 20% w/w): AS/IS"
"SYSMEHFRWGKPVGKKRRPVKVYP-OH [SEQ ID NO:33, reference compound]",–,does not form gel,AS/IS (AS/IS for aqueous solution or insoluble),AS/IS,–,–,AS/IS,"gel formation at 20% w/w: does not form gel; gel formation in aqueous solution, 20% (20% w/w): AS/IS (AS/IS for aqueous solution or insoluble); propensity to form gels, wild-type counterparts, 20% (Table 5, 20% w/w): AS/IS"
Pal-KVQKLSAPVDPSSPHSY-miniPEG-Y-(D-Ala)-GF(D-Leu)-NH2 [SEQ ID NO:212],–,–,–,–,–,–,–,"gel formation at 3% w/w: semisolid gels; gel formation in aqueous solution, 3% (3% w/w): SS (SS for semisolid gel); propensity to form gels, chimeric or mutated polypeptides, 3% (Table 5, 3% w/w): SS (An ability to form semisolid gel is represented by an SS)"
Pal-SSPHSY-miniPEG-ICVVQDWGHHRCT-NH2 [SEQ ID NO:244],–,semisolid gel,SS (SS for semisolid gel),–,AS/IS (AS/IS for aqueous solution or insoluble),–,–,"propensity to form gels, chimeric or mutated polypeptides, 6% (Table 5): AS/IS; propensity to form gels, chimeric or mutated polypeptides, 11% (Table 5): SS (An ability to form semisolid gel is represented by an SS)"
"KRPPGFS-(Dβal)-Ile-NH2 [SEQ ID NO:65, reference compound]",does not form a gel,does not form a gel,AS/IS (AS/IS for aqueous solution or insoluble),–,AS/IS (AS/IS for aqueous solution or insoluble),AS/IS,AS/IS,–
"Ac-EEMQRR-NH2 [SEQ ID NO:47, reference compound]",–,–,AS/IS (AS/IS for aqueous solution or insoluble),AS/IS,–,–,AS/IS,–
Pal-SSPHSY-miniPEG-PFRSVQ-NH2 [SEQ ID NO:242],liquid gel,semisolid gel,SS (SS for semisolid gel),–,–,–,–,"propensity to form gels, chimeric or mutated polypeptides, 11% (Table 5): SS (An ability to form semisolid gel is represented by an SS)"
"NC(=O)CC[C@@H]1NC(=O)[C@H](Cc2ccccc2)NC(=O)[C@H](Cc2ccc(O)cc2)NC(=O)[C@@H](N)CSSC[C@@H](C(=O)N2CCC[C@H]2C(=O)N[C@@H](CCCN=C(N)N)C(=O)NCC(N)=O)NC(=O)[C@H](CC(N)=O)NC1=O [SEQ ID NO:17, reference compound]",–,does not form gel,AS/IS (AS/IS for aqueous solution or insoluble),AS/IS,–,–,AS/IS,–
Pal-SSPHSY-miniPEG-SLRRSSCFGGRMDRIGAQSGLGCNSFRY-NH2 [SEQ ID NO:238],–,semisolid gel,SS (SS for semisolid gel),–,–,–,–,"gel formation at 20% w/w: semisolid gel; gel formation in aqueous solution, 20% (20% w/w): SS (SS for semisolid gel); propensity to form gels, chimeric or mutated polypeptides, 11% (Table 5): SS (An ability to form semisolid gel is represented by an SS); propensity to form gels, chimeric or mutated polypeptides, 20% (Table 5, 20% w/w): SS (An ability to form semisolid gel is represented by an SS)"
Pal-KVQKLSAPVDPSSPHSY-miniPEG-HAEGTFTSDVSSYLEGQAAKEFIAWLVKGR-NH2 [SEQ ID NO:220],–,–,SS (SS for semisolid gel),–,–,–,–,"propensity to form gels, chimeric or mutated polypeptides, 11% (Table 5): SS (An ability to form semisolid gel is represented by an SS)"
"(D-Tyr)QWAV(β-Ala)HF(Nle)-NH2 [SEQ ID NO:20, reference compound]",does not form gel,does not form gel,AS/IS (AS/IS for aqueous solution or insoluble),AS/IS,AS/IS (AS/IS for aqueous solution or insoluble),AS/IS,AS/IS,–
Pal-SSPHSY-miniPEG-YRSRKYSSVVY-NH2 ({Palmitoyl-Ser-Ser-Pro-H2N-Ser-Tyr-miniPEG}-YRSRKYSSVVY-NH2) [SEQ ID NO:249],–,semisolid gel,SS (SS for semisolid gel),–,AS/IS (AS/IS for aqueous solution or insoluble),–,–,"propensity to form gels, chimeric or mutated polypeptides, 6% (Table 5): AS/IS; propensity to form gels, chimeric or mutated polypeptides, 11% (Table 5): SS (An ability to form semisolid gel is represented by an SS)"
"SDAAVDTSSEITTKDLKEKKEVVEEAEN-NH2 (ends and bridges not checked) [SEQ ID NO:13, reference compound]",–,form self-assembling gels; also recorded: liquid gel,–,–,–,–,–,"gel formation at 20% w/w: semisolid gel; gel formation in aqueous solution, 20% (20% w/w): SS (SS for semisolid gel); propensity to form gels, wild-type counterparts, 20% (Table 5, 20% w/w): SS (An ability to form semisolid gel is represented by an SS)"
"VGVAPG-NH2 [SEQ ID NO:45, reference compound]",–,–,AS/IS (AS/IS for aqueous solution or insoluble),AS/IS,AS/IS (AS/IS for aqueous solution or insoluble),AS/IS,AS/IS,–
enfuvirtide,–,–,–,AS/IS,–,–,–,–
"[dF][dF]W[dR] [SEQ ID NO:7, reference compound]",semisolid gel,form self-assembling gels; also recorded: semisolid gel,SS (SS for semisolid gel),SS (SS for semisolid gel),SS (SS for semisolid gel),SS (An ability to form semisolid gel is represented by an SS),SS (An ability to form semisolid gel is represented by an SS),"gel formation at 3% w/w: semisolid gel; gel formation in aqueous solution, 3% (3% w/w): SS (SS for semisolid gel); propensity to form gels, wild-type counterparts, 3% (Table 5, 3% w/w): SS (An ability to form semisolid gel is represented by an SS)"
Pal-SSPHSY-NH2 [SEQ ID NO:119],–,–,–,–,–,–,–,Physical property at 11% w/w (Table 2): SS (SS for semisolid gel)
"HAEGTFTSDVSSYLEGQAAKEFIAWLVKGR-NH2 [SEQ ID NO:14, reference compound]",–,liquid gel,–,–,AS/IS (AS/IS for aqueous solution or insoluble),AS/IS,–,–
"(Glp)RPRLSHKGP(Nle)PF-NH2 (pyroGlu; Nle; C-terminal amide) [SEQ ID NO:18, reference compound]",does not form gel,does not form gel,AS/IS (AS/IS for aqueous solution or insoluble),AS/IS,AS/IS (AS/IS for aqueous solution or insoluble),AS/IS,AS/IS,"gel formation at 20% w/w: does not form gel; gel formation in aqueous solution, 20% (20% w/w): AS/IS (AS/IS for aqueous solution or insoluble); propensity to form gels, wild-type counterparts, 20% (Table 5, 20% w/w): AS/IS; gel formation at the selected concentration: only form aqueous solution or are insoluble"
"YVMGHFRWDRF-NH2 [SEQ ID NO:64, reference compound]",stay soluble,form self-assembling gels; also recorded: liquid gel,–,–,AS/IS (AS/IS for aqueous solution or insoluble),AS/IS,–,gel formation at the selected concentration: only form aqueous solution or are insoluble
Pal-SSPHSY-miniPEG-HGDGSFSDEMNTILDNLAARDFINWLIQTKITD-OH [SEQ ID NO:222],liquid gel,semisolid gel,SS (SS for semisolid gel),–,–,–,–,"propensity to form gels, chimeric or mutated polypeptides, 11% (Table 5): SS (An ability to form semisolid gel is represented by an SS)"
(G1p)RPRLSHKGP(Nle)PF-miniPEG-K(Pal)VQKLSAPVDPSSPHSY-NH2 [SEQ ID NO:206],–,liquid gel,–,–,–,–,–,gel formation at 20% w/w: liquid gel
